ChEMBL document CHEMBL4811256, “Synthesis and evaluation of multi-target-directed ligands with BACE-1 inhibitory and Nrf2 agonist activities as potential agents against Alzheimer's disease” (Eur J Med Chem, 2021)
Calls of active or inactive are those of the source. The calls are words filed in the database; no cut-off is given here.

Experiments:
PC-12 [1] = experiment: Cytoprotective activity against H2O2-induced oxidative stress in rat PC-12 cells assessed as decrease in cell death at 10 uM pretreated for 12 hrs followed by H2O2 challenge by MTT assay; assay type: functional, cell-based
PC-12 [2] = experiment: Protection against H2O2-induced ROS accumulation in rat PC-12 cells assessed as intracellular ROS level by measuring mean fluorescence intensity pretreated for 12 hrs followed by H2O2 challenge by DCFH-DA staining based flow cytometry; assay type: functional, cell-based; conditions: dose 2.5-10 µM
PC-12 [3] = experiment: Activation of Keap1-Nrf2-ARE pathway in rat PC-12 assessed as upregulation of TrxR1 protein expression measured after 12 hrs by Western blot analysis; conditions: filed as activator, dose 2.5-10 µM
HEK293 = experiment: Inhibition of amyloid beta(1 to 40) secretion in human HEK293T cells transfected with human APP harboring Swedish double mutant K595N/M596L measured after 24 hrs by ELISA; assay type: functional, cell-based; conditions: dose 2.5-10 µM
PC-12 [4] = experiment: Protection against H2O2-induced mitochondrial dysfunction in rat PC-12 cells assessed as change in mitochondrial membrane potential at 2.5 uM pretreated with compound for 12 hrs followed by H2O2 challenge by JC-1 staining based flow cytometry (reference value: 73 %); assay type: functional
[5] = Binding affinity to N-Acetyl-L-cysteine assessed ascompound-NAC covalent adduct formation measured after 3 hrs by Q-TOF mass spectroscopy
[6] = target: T1, Nuclear factor erythroid 2-related factor 2 (Mus musculus) (UniProt Q60795); experiment: Activation of Nrf2 in mouse BV-2 cells assessed as upregulation of GCLC protein expression after 24 hrs by Western blot analysis; assay type: cell-based; conditions: filed as activator, dose 2.5-10 µM
T1 sequence (whole entry): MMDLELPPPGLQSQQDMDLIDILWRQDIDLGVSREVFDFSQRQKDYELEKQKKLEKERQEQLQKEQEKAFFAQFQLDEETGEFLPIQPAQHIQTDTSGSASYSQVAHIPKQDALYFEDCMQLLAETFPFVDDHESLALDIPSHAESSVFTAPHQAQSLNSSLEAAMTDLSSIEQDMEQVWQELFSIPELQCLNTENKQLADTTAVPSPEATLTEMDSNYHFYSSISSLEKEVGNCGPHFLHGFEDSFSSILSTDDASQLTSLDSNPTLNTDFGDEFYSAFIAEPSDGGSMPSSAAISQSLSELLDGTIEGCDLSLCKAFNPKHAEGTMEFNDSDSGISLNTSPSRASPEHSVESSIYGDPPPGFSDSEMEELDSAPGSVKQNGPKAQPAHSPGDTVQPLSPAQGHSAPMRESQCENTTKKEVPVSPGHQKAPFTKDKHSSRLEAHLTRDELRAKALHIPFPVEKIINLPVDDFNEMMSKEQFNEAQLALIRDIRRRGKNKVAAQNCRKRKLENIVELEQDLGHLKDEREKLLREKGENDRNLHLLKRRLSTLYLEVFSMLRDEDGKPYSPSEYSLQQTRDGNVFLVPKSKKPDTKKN

PC-12 [7] = experiment: Cytoprotective activity against H2O2- induced cell death in rat PC-12 cells assessed as increase in viable cells at 10 uM pretreated for 12 hrs followed by H2O2 challenge by MTT assay relative to control; assay type: functional
PC-12 [8] = experiment: Protection against 6-OHDA-induced apoptosis in rat PC-12 cells assessed as late apoptotic cells at 2.5 uM pretreated for 12 hrs followed by 6-OHDA challenge by annexin V FITC/propidium iodide staining based flow cytometry (reference value: 17.3 %); assay type: functional
PC-12 [9] = experiment: Protection against H2O2-induced apoptosis in rat PC-12 cells assessed as necrotic cells at 5 uM pretreated for 12 hrs followed by H2O2 challenge by annexin V FITC/propidium iodide staining based flow cytometry (reference value: 3.7 %); assay type: functional
PC-12 [10] = experiment: Prevention of H2O2-induced calcium overload in rat PC-12 cells assessed as reduction in intracellular free calcium pretreated with compound for 12 hrs followed by H2O2 challenge by Fluo-3AM based fluorescence assay; assay type: functional, cell-based; conditions: dose 2.5-10 µM
PC-12 [11] = experiment: Protection against 6-OHDA-induced apoptosis in rat PC-12 cells assessed as necrotic cells at 10 uM pretreated for 12 hrs followed by 6-OHDA challenge by annexin V FITC/propidium iodide staining based flow cytometry (reference value: 3.7 %); assay type: functional
PC-12 [12] = experiment: Protection against H2O2-induced apoptosis in rat PC-12 cells assessed as cell rescue pretreated for 12 hrs followed by H2O2 challenge by Hoechst 33342 staining based confocal microscopic analysis; assay type: functional; conditions: dose 2.5-10 µM
PC-12 [13] = experiment: Cytoprotective activity against 6-OHDA-induced oxidative stress in rat PC-12 cells assessed as decrease in cell death at 10 uM pretreated for 12 hrs followed by 6-OHDA challenge by MTT assay; assay type: functional, cell-based
PC-12 [14] = experiment: Protection against 6-OHDA-induced apoptosis in rat PC-12 cells assessed as necrotic cells at 5 uM pretreated for 12 hrs followed by 6-OHDA challenge by annexin V FITC/propidium iodide staining based flow cytometry (reference value: 3.7 %); assay type: functional
PC-12 [15] = experiment: Neuroprotective activity against H2O2-induced cell damage in rat PC-12 cells assessed as decrease in cell death at 10 uM pretreated for 12 hrs followed by H2O2 challenge by MTT assay; assay type: functional, cell-based
PC-12 [16] = experiment: Protection against H2O2-induced mitochondrial dysfunction in rat PC-12 cells assessed as change in mitochondrial membrane potential at 10 uM pretreated with compound for 12 hrs followed by H2O2 challenge by JC-1 staining based flow cytometry (reference value: 73 %); assay type: functional
PC-12 [17] = experiment: Protection against 6-OHDA-induced apoptosis in rat PC-12 cells assessed as late apoptotic cells at 5 uM pretreated for 12 hrs followed by 6-OHDA challenge by annexin V FITC/propidium iodide staining based flow cytometry (reference value: 17.3 %); assay type: functional
PC-12 [18] = experiment: Protection against 6-OHDA-induced apoptosis in rat PC-12 cells assessed as viable cells at 5 uM pretreated for 12 hrs followed by 6-OHDA challenge by annexin V FITC/propidium iodide staining based flow cytometry (reference value: 76.7 %); assay type: functional; conditions: read-out: Activity
PC-12 [19] = experiment: Cytoprotective activity against H2O2-induced oxidative stress in rat PC-12 cells assessed as decrease in cell death at 10 uM pretreated with brusatol for 1 hr followed by compound treatment for 12 hrs and subsequent H2O2 challenge by MTT assay; assay type: functional, cell-based
PC-12 [20] = experiment: Protection against H2O2-induced apoptosis in rat PC-12 cells assessed as viable cells at 5 uM pretreated for 12 hrs followed by H2O2 challenge by annexin V FITC/propidium iodide staining based flow cytometry (reference value: 73.3 %); assay type: functional; conditions: read-out: Activity
PC-12 [21] = experiment: Activation of Keap1-Nrf2-ARE pathway in rat PC-12 assessed as upregulation of GCLC protein expression measured after 12 hrs by Western blot analysis; conditions: filed as activator, dose 2.5-10 µM
PC-12 [22] = experiment: Activation of Keap1-Nrf2-ARE pathway in rat PC-12 assessed as upregulation of TrxR1 protein expression at 10 uM measured after 6 to 24 hrs by Western blot analysis; conditions: filed as activator, time 6-24 hrs
PC-12 [23] = experiment: Protection against H2O2-induced apoptosis in rat PC-12 cells assessed as necrotic cells at 10 uM pretreated for 12 hrs followed by H2O2 challenge by annexin V FITC/propidium iodide staining based flow cytometry (reference value: 3.7 %); assay type: functional
PC-12 [24] = experiment: Protection against 6-OHDA-induced mitochondrial dysfunction in rat PC-12 cells assessed as change in mitochondrial membrane potential at 5 uM pretreated with compound for 12 hrs followed by 6-OHDA challenge by JC-1 staining based flow cytometry (reference value: 56 %); assay type: functional

CN1C(N)=N[C@](C)(c2cc(-n3[se]c4cc(F)ccc4c3=O)ccc2F)CS1(=O)=O
Activity (PC-12 [1]): Active | Activity (PC-12 [2]): Dose-Dependent Effect | Activity (PC-12 [3]): Active | inhibition (HEK293): Active | Activity (PC-12 [4]): 75.1% | Activity [5]: Active | Activity [6]: Dose-Dependent Effect | Activity (PC-12 [7]): 80% | Activity (PC-12 [8]): 14.9% | Activity (PC-12 [9]): 1.3% | Activity (PC-12 [10]): Dose-Dependent Effect | Activity (PC-12 [11]): 1.4% | Activity (PC-12 [12]): Dose-Dependent Effect | Activity (PC-12 [13]): Active | Activity (PC-12 [14]): 2.3% | Activity (PC-12 [15]): Active | Activity (PC-12 [16]): 89.1% | Activity (PC-12 [17]): 11.8% | viability at 5 µM (PC-12 [18]): 83.4% | Activity (PC-12 [19]): inactive | viability at 5 µM (PC-12 [20]): 89% | Activity (PC-12 [21]): Active | Activity (PC-12 [22]): Active | Activity (PC-12 [23]): 0.6% | Activity (PC-12 [24]): 64.8%
